Assay results taken from US11124554B2, “Modified ligand-gated ion channels and methods of use” (Howard Hughes Medical Institute, priority 2016, dated 2021).
Where two headings read alike, the source gives them in different places.

Experiments:
[1] = target: T1, α7GlyR W77F Q79G Y115F G175K (Homo sapiens, UniProt P36544, G175K/Q79G/W77F/Y115F); assay: Agonist potency at chimeric channel; format: cell-based
T1 construct: expressed in transfected cells

[2] = target: T2, α7^L131G,Q139L,Y217F-5HT3 HC (Homo sapiens, UniProt P36544, L131G/M226I/Q139L/T225I/Y217F); assay: Agonist potency at chimeric channel (Table 9); format: cell-based; details: α75HT3 L131G Q139L Y217F HC
T2 construct: expressed in transfected cells
T2 sequence (P36544 with tags, fused parts or gaps L131G/Q139L/Y217F/T225I/M226I limits assumed): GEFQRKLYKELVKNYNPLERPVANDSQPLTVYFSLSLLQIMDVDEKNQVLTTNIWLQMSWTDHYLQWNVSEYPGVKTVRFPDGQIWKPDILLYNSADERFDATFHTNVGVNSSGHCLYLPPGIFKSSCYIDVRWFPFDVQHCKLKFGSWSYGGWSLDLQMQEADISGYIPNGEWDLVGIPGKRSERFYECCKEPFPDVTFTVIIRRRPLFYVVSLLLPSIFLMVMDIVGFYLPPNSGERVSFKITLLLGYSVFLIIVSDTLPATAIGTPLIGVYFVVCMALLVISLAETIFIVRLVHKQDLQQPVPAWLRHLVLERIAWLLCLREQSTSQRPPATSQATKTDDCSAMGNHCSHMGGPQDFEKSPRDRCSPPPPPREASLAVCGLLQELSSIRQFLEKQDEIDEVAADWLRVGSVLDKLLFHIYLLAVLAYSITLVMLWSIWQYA

[3] = target: T3, α7^Q79A-GlyR (Homo sapiens, UniProt P36544, Q79A); assay: Agonist potency (EC50), HEK cells expressing chimeric channel; format: cell-based
T3 construct: expressed in transfected cells; host or cells: HEK cells
T3 sequence (P36544 with tags, fused parts or gaps Q79A): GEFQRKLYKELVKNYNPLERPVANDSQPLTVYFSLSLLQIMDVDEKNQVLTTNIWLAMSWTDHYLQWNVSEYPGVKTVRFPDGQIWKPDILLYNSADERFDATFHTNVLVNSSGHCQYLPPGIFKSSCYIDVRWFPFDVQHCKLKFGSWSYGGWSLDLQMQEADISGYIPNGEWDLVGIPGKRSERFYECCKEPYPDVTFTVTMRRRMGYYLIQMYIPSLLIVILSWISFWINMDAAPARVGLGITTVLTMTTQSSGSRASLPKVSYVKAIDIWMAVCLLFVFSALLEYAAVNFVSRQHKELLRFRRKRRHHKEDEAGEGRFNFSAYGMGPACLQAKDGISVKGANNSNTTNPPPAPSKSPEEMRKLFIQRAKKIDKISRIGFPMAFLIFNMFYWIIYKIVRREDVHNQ

[4] = target: T4, α7^R27D,E41R-5HT3 (Homo sapiens, UniProt P36544, E41R/M226I/R27D/T225I); assay: Whole cell recordings in HEK cells; format: cell-based, human α7 nAChR LBD, murine 5HT3 IPD; details: V5 epitope tag
T4 construct: expressed in transfected cells; host or cells: HEK cells
T4 sequence (P36544 with tags, fused parts or gaps R27D/E41R/T225I/M226I limits assumed): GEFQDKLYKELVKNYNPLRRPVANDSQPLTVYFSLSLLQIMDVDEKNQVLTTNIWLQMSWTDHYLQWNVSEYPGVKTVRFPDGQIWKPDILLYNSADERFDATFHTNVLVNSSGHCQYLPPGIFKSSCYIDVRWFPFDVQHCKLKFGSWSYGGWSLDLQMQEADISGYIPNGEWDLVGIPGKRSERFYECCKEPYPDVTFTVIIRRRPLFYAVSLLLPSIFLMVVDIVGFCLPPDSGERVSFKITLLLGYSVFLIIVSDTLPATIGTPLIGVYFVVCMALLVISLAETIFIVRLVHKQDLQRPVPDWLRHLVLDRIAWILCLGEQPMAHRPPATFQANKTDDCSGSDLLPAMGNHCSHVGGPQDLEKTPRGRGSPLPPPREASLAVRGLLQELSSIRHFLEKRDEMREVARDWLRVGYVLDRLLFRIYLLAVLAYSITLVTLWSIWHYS

[5] = target: T5, α7-GlyR^A298G (Homo sapiens, UniProt P36544, A298G); assay: Agonist potency (EC50), HEK cells expressing chimeric channel; format: cell-based
T5 construct: expressed in transfected cells; host or cells: HEK cells
T5 sequence (P36544 with tags, fused parts or gaps, stated change not applied): as the sequence (P36544 with tags, fused parts or gaps Q79A) above, with A57Q, A276G counted along it

[6] = target: T6, α7GlyR Q79G G175K Y115F R27D E41R (Homo sapiens, UniProt P36544, E41R/G175K/Q79G/R27D/Y115F); assay: Agonist potency at chimeric channel; format: cell-based
T6 construct: expressed in transfected cells
T6 sequence (P36544 with tags, fused parts or gaps R27D/E41R/Q79G/Y115F/G175K): as the sequence (P36544 with tags, fused parts or gaps Q79A) above, with R5D, E19R, A57G, Y93F, G153K counted along it

[7] = target: T7, α7^Q79G-GlyR^A298G (Homo sapiens, UniProt P36544, A298G/Q79G); assay: Agonist potency (EC50), HEK cells expressing chimeric channel; format: cell-based
T7 construct: expressed in transfected cells; host or cells: HEK cells
T7 sequence (P36544 with tags, fused parts or gaps Q79G): as the sequence (P36544 with tags, fused parts or gaps Q79A) above, with A57G, A276G counted along it

[8] = target: T8, α7^L131G,Q139L,Y217F-GlyR (Homo sapiens, UniProt P36544, L131G/Q139L/Y217F); assay: cell-based; format: cell-based
T8 construct: expressed in transfected cells
T8 sequence (P36544 with tags, fused parts or gaps L131G/Q139L/Y217F): as the sequence (P36544 with tags, fused parts or gaps Q79A) above, with A57Q, L109G, Q117L, Y195F counted along it

[9] = target: T9, α7^P216I-GlyR (Homo sapiens, UniProt P36544, P216I); assay: Agonist potency at chimeric channel; format: cell-based
T9 construct: expressed in transfected cells
T9 sequence (P36544 with tags, fused parts or gaps P216I): as the sequence (P36544 with tags, fused parts or gaps Q79A) above, with A57Q, P194I counted along it

[10] = target: T10, α7^R27D,E41R,Q79G,Y115F-GlyR^A298G (Homo sapiens, UniProt P36544, A298G/E41R/Q79G/R27D/Y115F); assay: Agonist potency (EC50), HEK cells expressing chimeric channel; format: cell-based; details: Table 4, read-out: Mean EC50, α7^R27D,E41R,Q79G,115F-GlyR^A298G
T10 construct: expressed in transfected cells; host or cells: HEK cells
T10 sequence (P36544 with tags, fused parts or gaps R27D/E41R/Q79G/Y115F): as the sequence (P36544 with tags, fused parts or gaps Q79A) above, with R5D, E19R, A57G, Y93F, A276G counted along it

[11] = target: T11, α7GlyR Q79S L131G Q139L Y217F (Homo sapiens, UniProt P36544, L131G/Q139L/Q79S/Y217F); assay: cell-based
T11 construct: expressed in transfected cells
T11 sequence (P36544 with tags, fused parts or gaps Q79S/L131G/Q139L/Y217F): as the sequence (P36544 with tags, fused parts or gaps Q79A) above, with A57S, L109G, Q117L, Y195F counted along it

[12] = target: T12, α7^Q79G,Q139G-5HT3 (Homo sapiens, UniProt P36544, M226I/Q139G/Q79G/T225I); assay: Agonist potency (EC50), HEK cells expressing chimeric channel; format: cell-based, human α7 nAChR LBD, murine 5HT3 IPD; details: Table 4
T12 construct: expressed in transfected cells; host or cells: HEK cells
T12 sequence (P36544 with tags, fused parts or gaps Q79G/Q139G/T225I/M226I): as the sequence (P36544 with tags, fused parts or gaps R27D/E41R/T225I/M226I limits assumed) above, with D5R, R19E, Q57G, Q117G counted along it

[13] = target: T13, α7^Q79G,Y115F-5HT3 (Homo sapiens, UniProt P36544, M226I/Q79G/T225I/Y115F); assay: as above; format: cell-based, human α7 nAChR LBD, murine 5HT3 IPD; details: Table 4
T13 construct: expressed in transfected cells; host or cells: HEK cells
T13 sequence (P36544 with tags, fused parts or gaps Q79G/Y115F/T225I/M226I): as the sequence (P36544 with tags, fused parts or gaps R27D/E41R/T225I/M226I limits assumed) above, with D5R, R19E, Q57G, Y93F counted along it

[14] = target: T14, α7-GlyR (Homo sapiens, UniProt P36544); assay: as above; format: cell-based
T14 construct: expressed in transfected cells; host or cells: HEK cells
T14 sequence (P36544 with tags, fused parts or gaps): as the sequence (P36544 with tags, fused parts or gaps Q79A) above, with A57Q counted along it

[15] = target: T15, α7^Q79G,Y115F-GlyR^A298G (Homo sapiens, UniProt P36544, A298G/Q79G/Y115F); assay: as above; format: cell-based; details: Table 4
T15 construct: expressed in transfected cells; host or cells: HEK cells
T15 sequence (P36544 with tags, fused parts or gaps Q79G/Y115F): as the sequence (P36544 with tags, fused parts or gaps Q79A) above, with A57G, Y93F, A276G counted along it

[16] = target: T16, α7^W77F,G175K-GlyR (Homo sapiens, UniProt P36544, G175K/W77F); assay: Agonist potency at chimeric channel; format: cell-based
T16 construct: expressed in transfected cells
T16 sequence (P36544 with tags, fused parts or gaps W77F/G175K): as the sequence (P36544 with tags, fused parts or gaps Q79A) above, with W55F, A57Q, G153K counted along it

[17] = target: T17, α7^Q79S,L131G,Q139L-GlyR (Homo sapiens, UniProt P36544, L131G/Q139L/Q79S); assay: cell-based; format: cell-based
T17 construct: expressed in transfected cells
T17 sequence (P36544 with tags, fused parts or gaps Q79S/L131G/Q139L): as the sequence (P36544 with tags, fused parts or gaps Q79A) above, with A57S, L109G, Q117L counted along it

[18] = target: T18, α7GABAc (GABAA-ρ) W298A (Homo sapiens, UniProt P36544, L141F/Q79G); assay: Agonist potency at chimeric channel (Table 7); format: cell-based
T18 construct: expressed in transfected cells
T18 sequence (P36544 with tags, fused parts or gaps Q79G/L141F): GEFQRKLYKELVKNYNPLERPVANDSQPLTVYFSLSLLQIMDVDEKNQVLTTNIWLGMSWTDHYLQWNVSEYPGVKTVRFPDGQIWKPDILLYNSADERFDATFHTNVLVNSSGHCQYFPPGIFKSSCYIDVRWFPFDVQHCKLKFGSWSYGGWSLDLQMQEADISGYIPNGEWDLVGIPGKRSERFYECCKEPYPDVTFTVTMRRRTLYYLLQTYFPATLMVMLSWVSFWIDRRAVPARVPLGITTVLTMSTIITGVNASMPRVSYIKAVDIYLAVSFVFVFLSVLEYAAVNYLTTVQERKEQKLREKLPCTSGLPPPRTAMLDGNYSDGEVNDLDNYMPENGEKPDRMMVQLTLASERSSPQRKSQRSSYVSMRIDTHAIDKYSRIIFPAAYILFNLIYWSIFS

[19] = target: T19, α7^Q79G-5HT3 (Homo sapiens, UniProt P36544, M226I/Q79G/T225I); assay: Agonist potency (EC50), HEK cells expressing chimeric channel; format: cell-based, human α7 nAChR LBD, murine 5HT3 IPD; details: read-out: Mean EC50, α7^Q79G-5HT3
T19 construct: expressed in transfected cells; host or cells: HEK cells
T19 sequence (P36544 with tags, fused parts or gaps Q79G/T225I/M226I): as the sequence (P36544 with tags, fused parts or gaps R27D/E41R/T225I/M226I limits assumed) above, with D5R, R19E, Q57G counted along it

[20] = target: T20, α7GlyR Q79G Y115F G175K K322L (Homo sapiens, UniProt P36544, G175K/Q79G/Y115F); assay: Agonist potency at chimeric channel; format: cell-based
T20 construct: expressed in transfected cells
T20 sequence (P36544 with tags, fused parts or gaps Q79G/Y115F/G175K): as the sequence (P36544 with tags, fused parts or gaps Q79A) above, with A57G, Y93F, G153K, K300L counted along it

[21] = target: T21, α7^L131G-GABAc (Homo sapiens, UniProt P36544, L131G); assay: Agonist potency at chimeric channel (Table 9); format: cell-based
T21 construct: expressed in transfected cells
T21 sequence (P36544 with tags, fused parts or gaps L131G): as the sequence (P36544 with tags, fused parts or gaps Q79G/L141F) above, with G57Q, L109G, F119L, A276W counted along it

[22] = read-out: Agonist potency, a7GlyR

T1 sequence (P36544 with tags, fused parts or gaps W77F/Q79G/Y115F/G175K): as the sequence (P36544 with tags, fused parts or gaps Q79A) above, with W55F, A57G, Y93F, G153K counted along it

| SMILES | EC50 [1] [nM] | EC50 [3] [nM] | EC50 [5] [nM] | EC50 [6] [nM] | EC50 [7] [nM] | EC50 [8] [nM] | EC50 [9] [nM] | EC50 [11] [nM] | EC50 [14] [nM] | EC50 ([14]; read-out: Agonist potency) [nM] | EC50 [14, 22] [nM] | EC50 [16] [nM] | EC50 [17] [nM] | EC50 [18] [nM] | EC50 [20] [nM] | other results |
| --- | --- | --- | --- | --- | --- | --- | --- | --- | --- | --- | --- | --- | --- | --- | --- | --- |
| O=C(NC1CN2CCC1CC2)c1ccc(Cl)cc1 (centres unmarked) [PNU-282987] | > 1000 | 22 | 35 | 50 | 7 | 160 | 40 | 50 | 130 | 130 | 130 | – | – | – | – | EC50 [2]: 15 nM; whole cell response [4]: potent responses; EC50 ([7]; read-out: α7^Q79G-GlyR^A298G EC50): 7 nM; EC50 [10]: 66 nM; EC50 [12]: 160 nM; EC50 [13]: 350 nM; EC50 ([14]; read-out: α7-GlyR EC50): 130 nM; EC50 [15]: 220 nM |
| Clc1ccc(C2CC3CCC2N3)cn1 (centres unmarked) [Epibatidine] | – | 38 | – | 59 | 32 | 21 | 30 | 22 | – | – | – | 40 | 12 | 420 | 270 | EC50 ([19]; HEK cells, Table 1): 50 nM |
| O=c1cccc2n1C[C@@H]1CNC[C@H]2C1 [Cytisine] | 4020 | – | 2100 | – | – | – | – | – | 6400 | 6400 | 6400 | 1500 | 10000 | 13300 | > 30000 | EC50 [21]: > 500000 nM; EC50 [19]: 1700 nM |
